The source of these data is article PMC11539218 (Antimicrobial Agents and Chemotherapy, 2024).

For series [1], the system named is L. (L.) infantum promastigotes. Description: Total proteins of the parasite. The class given is cell-based, Leishmania (L.) infantum. The conditions noted are these: promastigotes after treatment.
For series [2], the system named is L. (L.) infantum promastigotes. The experiment in a line: Intracellular Ca2+ (Fluo-4 AM). The class given is cell-based, Leishmania (L.) infantum. The conditions noted are these: 169.2 µM, from 20 min up to 4 h, vs untreated. As to the method:
Promastigotes (2 × 10^6/well) were pretreated with Fluo-4 AM (5 µM) in PBS, for 1 h at 24°C. Then, parasites were treated with compound 1 (169.2 µM). Fluorescence was measured every 20 min up to 4 h in a spectrofluorometer, with excitation and emission wavelengths of 485 nm and 535 nm, respectively ([21]). Triton X-100 0.5% (vol/vol) was employed as positive control and untreated parasites as negative control.

Series [3] is described as follows: Stability in plasma under handling and storage conditions (HPLC). The class given is in vitro ADME. How it is done:
The detection and quantification of compound 1 in the blood matrices were performed after sample processing, using a liquid-liquid extraction methodology. First, 100 µL of plasma was enriched with 10 µL of PI (0.8 µg/mL). Subsequently, 500 µL of hexane was added and the mixture was vortexed for 1 min and centrifuged at 22,082 × g for 5 min. The organic phase was collected in glass tubes and the aqueous phase was subjected to the liquid-liquid extraction procedure again. In the end, the combined organic samples were completely evaporated at 60°C under nitrogen flow and reconstituted in 100 µL of 40:60 ACN:H2O + 0.1% orthophosphoric acid (pH 2.08). Finally, the extracts were centrifuged at 22,082 × g for 2 min and injected into the chromatographic system. Chromatographic analyses by HPLC were performed using a C18 column (Purospher Star LiChroCART, 55 × 4 mm, 3 µm) with gradient elution (Table 1).
Method validation was performed following the guidelines for bioanalytical methods validation of the Food and Drug Administration and European Medicines Agency ([29], [30]). Thus, the acceptance criteria set out in these guides were adopted for the parameters of selectivity, linearity, precision, accuracy, lower limit of quantification (LLOQ), and stability. Quality controls of the lower limit of quantification (QCLOQ—0.03 µg/mL), low (QC1—0.08 µg/mL), medium (QC2—2 µg/mL), and high (QC3—5 µg/mL), were also established in accordance with the guides. […] In addition, stability was established after exposure to different conditions, mimicking storage and handling throughout the experimental process (Table 2).

For series [4], the system named is L. (L.) infantum promastigotes. The experiment in a line: DNA content / integrity (agarose gel electrophoresis). It is filed as cell-based, Leishmania (L.) infantum. The conditions noted are these: compound 1 169.2 µM, H2O2 10 mM; 24 h; 2% agarose gel. How it is done:
Promastigotes (1 × 10^7/well) were treated with compound 1 (169.2 μM) in M199 medium supplemented with 10% FBS and 0.25% hemin, pH 7.2, for 24 h at 24°C. Then, the genetic material was extracted using the QIAamp DNA Mini Kit, according to the manufacturer’s instructions. Total DNA quantification was performed in a NanoDrop ND-1000 spectrophotometer (260/280 nm). The purified genetic material (300 ng) was analyzed by electrophoresis for 1 h at […] in a 2% agarose gel with ethidium bromide (0.5 µg/mL). Visualization was performed under UV light in a MiniBIS Pro transilluminator (DNR Bio Imaging System) ([21]). H2O2 (10 mM) was employed as positive control and untreated parasites as negative control ([26]).

Series [5] relates to Erythrocytes collected from BALB/c mice. Description: Hemolytic activity. The class given is cell-based. The conditions noted are these: 6.25 to 200 µM, 2 h. How it is done:
Erythrocytes collected from BALB/c mice were added to a U-shaped bottom 96-wells microplate at 3% (vol/vol) in phosphate-buffered saline (PBS), treated with compound 1 serially diluted ([…] to 200 µM) in PBS and incubated for 2 h at 24°C. To determine the hemolytic activity, cell supernatants were collected and analyzed in a spectrophotometer (570 nm) ([15]). Bidistilled water was employed as a positive control and untreated erythrocytes as a negative control.

The subject of series [6] is L. (L.) infantum promastigotes. The experiment in a line: Acidocalcisomes alkalinization (acridine orange). The class given is cell-based, Leishmania (L.) infantum. The conditions noted are these: compound 1 169.2 µM, nigericin 4 µM; after 20 min; vs untreated. How it is done:
Promastigotes (2 × 10^6/well) were pretreated with acridine orange (4 µM) in PBS, for 5 min at 24°C. The parasites were treated with compound 1 (169.2 µM). Fluorescence was monitored every 20 min up to 4 h in a spectrofluorometer, with excitation and emission wavelengths of 485 and 535 nm, respectively ([22]). Nigericin (4 µM) was employed as positive control and untreated parasites as negative control ([23]).

The test system of series [7] is L. (L.) infantum promastigotes. The experiment in a line: Adenosine triphosphate levels (luciferase bioluminescence). The class given is cell-based, Leishmania (L.) infantum. The conditions noted are these: 169.2 µM; 2 and 4 h; vs untreated parasites. As to the method: Promastigotes (2 × 10^6/well) were treated with compound 1 (169.2 µM) for 2 and 4 h, at 24°C. Subsequently, the parasites were lysed with Triton X-100 (0.5%) and mixed with ATP Determination Kit standard reaction buffer (1 mM DTT, 0.5 mM luciferin, and 1.25 µg/mL luciferase), according to the manufacturer’s instructions. […] CCCP (10 µM) was employed as positive control and untreated parasites as negative control.

The test system of series [8] is L. (L.) infantum promastigotes. The experiment in a line: Mitochondrial membrane electric potential (JC-1, flow cytometry). It is filed as cell-based, Leishmania (L.) infantum. The conditions noted are these: compound 1 169.2 µM, CCCP 10 µM; 2 and 4 h; JC-1 BL-2/BL-1 ratio; vs untreated. As to the method: Promastigotes (2 × 10^6/well) were treated with compound 1 (169.2 µM) for 2 and 4 h, at 24°C. Then, JC-1 (10 µM) was added and the parasites were incubated for 20 min. Fluorescence was measured in a flow cytometer with an excitation wavelength of 488 nm and emission of 530 (BL-1) and 574 nm (BL-2). Mitochondrial membrane potential was established through the ratio of BL-2/BL-1 channels ([19]). Carbonyl cyanide m-chlorophenylhydrazone (CCCP) (10 µM) was employed as positive control and untreated parasites as negative control.

`C=CCc1cc(OC)c(OCc2ccc(OC)cc2)c(Oc2ccc(CN3CCOCC3)cc2OC)c1` [compound 1, 4-(4-(5-allyl-3-methoxy-2-((4-methoxybenzyl)oxy)phenoxy)-3-methoxybenzyl)morpholine]: the total protein level result in series [1] was “increased level of total protein”. Also, the “intracellular Ca2+ level” value in series [2] was “fast and increased Ca^2+ level”. In addition, the “Stability/reference analyte concentration (%)” value in series [3] (0.08 µg/mL, processed sample, 2 h at room temperature) is recorded as 98.35%; in series [3] (0.08 µg/mL, processed sample, 24 h at 4°C), 99.12%; in series [3] (0.08 µg/mL, unprocessed sample, 2 h at room temperature) it was 86.54%; in series [3] (0.08 µg/mL, unprocessed sample, 6 h at 4°C), 91.74%; in series [3] (0.08 µg/mL, unprocessed sample, 24 h at 4°C), 87.07%; in series [3] (0.08 µg/mL, unprocessed sample, 15 days at −20°C), 85.36%. Also, the “Stability/reference analyte concentration (%)” value in series [3] (0.08 µg/mL, unprocessed sample, 30 days at −20°C) came to 92.66%; in series [3] (0.08 µg/mL, unprocessed sample, freezing/thawing) it was 88.58%; in series [3] (5.00 µg/mL, processed sample, 2 h at room temperature) it was 100.43%; in series [3] (5.00 µg/mL, processed sample, 24 h at 4°C), 98.84%; in series [3] (5.00 µg/mL, unprocessed sample, 2 h at room temperature) it was 90.90%; in series [3] (5.00 µg/mL, unprocessed sample, 6 h at 4°C), 95.92%. The “Stability/reference analyte concentration (%)” value came out at 91.65% in series [3] (5.00 µg/mL, unprocessed sample, 24 h at 4°C); 90.53% in series [3] (5.00 µg/mL, unprocessed sample, 15 days at −20°C); 93.24% in series [3] (5.00 µg/mL, unprocessed sample, 30 days at −20°C); 97.49% in series [3] (5.00 µg/mL, unprocessed sample, freezing/thawing). The “integrity of the genetic content (DNA)” value in series [4] is recorded as “no alterations”. Moreover, the hemolysis result in series [5] was “no hemolysis”. For the same compound, in series [6], the “acridine orange fluorescence levels (acidocalcisomes)” value is listed as “significantly higher”. Moreover, the ATP concentration result in series [7] is listed as “significant reduction”. The “mitochondrial membrane electric potential (ΔΨm)” value in series [8] is on record as “significant depolarization”.
